Experimental data from patent publication US10556872B2, “Fatty acid synthase inhibitors and methods of use” (Hampton University, priority 2017, dated 2020).

Tests used:
Format in all cases: cell-based
[1] = tested on: H460 lung cancer cells; test: MTT assay, cell viability of H460 lung cancer cells
Protocol: (§1) Antiproliferative effect of FAS inhibitors on MCF-7 cells was determined by performing MTT assay. Roughly, 10,000 cells per well were plated in 96-well cell culture microplate (Costar, USA) and incubated overnight in full media (DMEM containing 10% FBS) for cells to adhere to the plate. Cells were then treated with various concentrations of inhibitors and vehicle for 24 hrs in serum free media. Cell viability was evaluated by the MTT (Sigma-Aldrich, St. Louis, Mont.) assay. The absorbance of solubilized formazan was read at 570 nm using ELISA reader (Bio-TEK, Synergy-1).
(§2) We treated H460 lung cancer cells, MDA-MB-231 breast cancer cells, and PC-3 prostate cancer cells with the FAS inhibitor, Compound 1A.

[2] = tested on: MDA-MB-231 breast cancer cells; test: MTT assay, cell viability of MDA-MB-231 breast cancer cells; conditions: MDA-MB-231 cells
Protocol: as §1, §2

[3] = tested on: PC-3 prostate cancer cells; test: MTT assay, cell viability of PC-3 prostate cancer cells; conditions: PC-3 cells
Protocol: as §1, with “Cells were then treated with various concentrations of inhibitors and vehicle for 24 hrs in serum free media.” left out
as §2

[4] = tested on: MCF-7 breast cancer cells; test: MTT assay, cell viability of MCF-7 breast cancer cells; conditions: Homo sapiens, MCF7; MCF-7 cells, 24 hours of treatment
Protocol: An MTT assay was performed with the FAS inhibiting compounds of Formulae II, III, IV and V (e.g., Compound 1A) on MCF-7 breast cancer cells, with an IC50 of about […] after 24 hours of treatment. The results are illustrated in FIG. 2.
as §1

Question: `O=C(CCn1cc(Br)c(=O)[nH]c1=O)OCCO` [5-Bromouracil ester, 2-Hydroxyethyl3-(5-bromo-2,4-dioxo-3,4-dihydropirimidin-1(2H)-yl)propanoate] was tested. Which “anticancer effect (MTT assay), fragment alone” value (“anticancer effect (MTT assay)” below) [1] did it give?
Answer: no anticancer effect

Question: And the “anticancer effect (MTT assay)” value [2]?
Answer: no anticancer effect

Question: What about the “anticancer effect (MTT assay)” value [3] of the same molecule?
Answer: no anticancer effect

Question: Which results are given for `O=c1[nH]cc(Br)c(=O)[nH]1` [5-Bromouracil]?
Answer: anticancer effect (MTT assay), fragment alone [1]: no anticancer effect; anticancer effect (MTT assay), fragment alone [2]: no anticancer effect; anticancer effect (MTT assay), fragment alone [3]: no anticancer effect

Question: For `CCCCCCCCCCCCCCCCOC(=O)CCn1cc(Br)c(=O)[nH]c1=O` [Compound 1A, Hexadecyl 3-(5-bromo-2,4-dioxo-3,4-dihydropyrimidin-1(2H)-yl)propanoate], which IC50 [4] is on record?
Answer: ~10 µM

Question: And the “cell viability (MTT)” value ([1]; 24-hr treatment (FIG. 4: 10 μM))?
Answer: significantly reduced the viability

Question: What about the “cell viability (MTT)” value ([2]; 24-hr treatment (FIG. 5: 10 μM)) of the same molecule?
Answer: significantly reduced the viability

Question: And the “cell viability (MTT)” value ([3]; 72-hr treatment (FIG. 6B: 10 μM))?
Answer: reduced the viability
